From patent US20020155172A1, “Methods and compounds for decreasing cell toxicity or death” (priority 2000, published 2002) come the findings set out here.

Series [1] relates to R62 mice and wild-type mice. Nature of the series: Body weight. The class given is in vivo. The text has this: FIG. 10A is a graph showing the effect of Congo red or PBS (vehicle) on body weight in HD transgenic mice between 9 and 11 weeks of age (top graph) and between 9 and 13 weeks of age (bottom graph). Mice were infused intraperitoneally (IP) or by intracerebroventricular cannula (ICV) implanted into the predetermined coordinates on the left ventricle, or by both routes.
(§1) In addition, the ability of Congo red to inhibit the formation as well as to disrupt preformed polyglutamine oligomers allowed us to examine the role of polyglutamine aggregates in neuronal dysfunction and degeneration characteristic of polyglutamine expansion diseases. In these studies, we used the animal model of Huntington's disease (R62), which expresses the truncated form of huntingtin with 139 CAG repeats Mangiarini et al. (supra). We took advantage of our finding that in addition to inhibiting polyglutamine oligomerization, Congo red also disrupts pre-formed oligomers, thus allowing assessment of the impact of Congo red on disease progression after formation of polyglutamine aggregates and the onset of symptoms. […]
One of the common features of Huntington's disease is severe weight loss, proposed to be due to metabolic defects as a part of the systemic pathology of the expanded polyglutamine repeat diseases. We monitored the body weight of mice before and after treatment (FIG. 10A).

The subject of the next series is R62 transgenic mice. Nature of the series: Rotorod, muscle strength, first study. The note with it: R62Tg mice; 10 rpm, maximum 60 seconds; versus R62Tg without Congo red. The class given is in vivo. How it is done: FIG. 9 is a graph showing the effect of intraperitoneal injection of Congo red on the motor performance in the mouse model of Huntington's disease (R62). Wild type mice or R62 transgenic mice carrying a polyglutamine repeat (R62Tg) were injected with either 0.5 ml of 1 mg/ml Congo red in phosphate buffered saline (PBS) or PBS alone and tested for their muscle strength by measuring their ability to remain on the rotorod at 10 rpm for a maximum period of 60 seconds.
Transgenic R62 mice that express the human Huntington's disease gene (carrying a 139-157 CAG repeat; Mangiarini et al., Cell 87:493-506, 1996; Carter et al., J. Neurosci. 19:3248-3257, 1999; and Levine et al., J. Neurosci. Res. 58:515-532, 1999) were used to examine the effects of Congo red on cell death or toxicity. […]
The latter procedure involved administration of 0.25 μl of the drug (1 mg/ml in 0.4% DMSO) per hour, for a period of at least 28 days. […] Polyglutamine inclusions were readily detected at the beginning of treatment. The effect of Congo red on the polyglutamine-induced toxicity in muscle strength in the animal model R62 was quantified by the use of a rotorod.
The mice were trained every day for a week after which time the latency to fall from a rotorod at a speed of 10 rpm was measured for each mouse, with a maximum time of 60 seconds per trial, as described by Carter et al., (J. Neurosci. 19:3248-3257, 1999). […]
(In the rotarod test animals must keep their balance on a rotating rod.)

Series [2] deals with wild type mice and R62 mice. Put plainly: Tolerability of Congo red in mice. The class given is in vivo. How it is done: The latter procedure involved administration of 0.25 μl of the drug (1 mg/ml in 0.4% DMSO) per hour, for a period of at least 28 days. The treatment began at the latter part of the seventh week. When treatment began, although very little motor symptomology was observed, tremors were becoming apparent. Polyglutamine inclusions were readily detected at the beginning of treatment. The effect of Congo red on the polyglutamine-induced toxicity in muscle strength in the animal model R62 was quantified by the use of a rotorod.
as §1, with “symptoms. R62 transgenic mice and CBAxC57B1/6 F1 wild type littermates were obtained from Jackson Laboratories (Bar Harbor, Me.) at the age of five weeks.” for “symptoms.”

The subject of series [3] is HeLa cells co-transfected with a luciferase construct together with Q79-GFP. Nature of the series: Protein synthesis by luciferase activity in Q79 expressing HeLa cells. The class given is cell-based. The following applies: 48 hours after transfection.

Each structure is given as a SMILES string.

As for `Nc1c(/N=N/c2ccc(-c3ccc(/N=N/c4cc(S(=O)(=O)O)c5ccccc5c4N)cc3)cc2)cc(S(=O)(=O)O)c2ccccc12` [Congo red, diphenyldiazo-bis-alpha-napthylaminesulfonate], the “body weight, wild-type mice” value in series [1] (9 to 13 weeks, versus vehicle treated wild-type mice) is on record as “no change in body weight”. Also, the “loss of body weight, expanded polyglutamine repeat expressing mice” value in series [1] (ICV or IP route of delivery) is listed as “significantly ameliorated”. The “ability to remain on the rotorod” value in the series with R62 transgenic mice is given as “exhibited a better ability to remain on the rotorod”. The “gross morphological abnormalities or symptoms” value in series [2] (IP or ICV infusion, normal wild type mice or pre- or post-symptomatic R62 mice) is reported as “no gross morphological abnormalities or induction of any obvious symptoms”. For the same compound, in series [2] (intraperitoneal injection up to 13 mg/kg every 48 hours for two weeks), the drug toxicity result was “no obvious drug toxicity”. The “loss of luciferase activity (protein synthesis)” value in series [3] is “prevented the loss of luciferase activity”.
